Measured values taken from article PMC2956102 (International Journal of Molecular Sciences, 2010).
Like-named read-outs stand apart in the source and are kept apart here.

What was measured:
yeast α-glucosidase = test system: yeast α-glucosidase; design: method as in PMID 15558946; settings: ref [9]; cited from earlier work
intestinal sucrase [1] = biological target: T1, intestinal sucrase (Rattus norvegicus, UniProt P23739); assay: Intestinal α-glucosidase (sucrase) inhibition assay, rat intestinal acetone powder; format: biochemical; settings: for Percentage intestinal sucrase inhibition in combination with acarbose, compared with acarbose alone: 1 μM compound + 3.12 μM acarbose, Figure 3; for IC50: 54 mM sucrose, pH 6.9, 37 °C, 60 min, means ± S.E.M., n = 3
T1 construct: 100 mg of rat intestinal acetone powder was homogenized in 3 mL of 0.9% NaCl solution; tissue Sigma Chemical Co. Ltd. (St. Louis, MO); host or cells: rat intestine (acetone powder, supernatant of the saline homogenate)
T1 sequence (P23739 1014-1841 limits assumed): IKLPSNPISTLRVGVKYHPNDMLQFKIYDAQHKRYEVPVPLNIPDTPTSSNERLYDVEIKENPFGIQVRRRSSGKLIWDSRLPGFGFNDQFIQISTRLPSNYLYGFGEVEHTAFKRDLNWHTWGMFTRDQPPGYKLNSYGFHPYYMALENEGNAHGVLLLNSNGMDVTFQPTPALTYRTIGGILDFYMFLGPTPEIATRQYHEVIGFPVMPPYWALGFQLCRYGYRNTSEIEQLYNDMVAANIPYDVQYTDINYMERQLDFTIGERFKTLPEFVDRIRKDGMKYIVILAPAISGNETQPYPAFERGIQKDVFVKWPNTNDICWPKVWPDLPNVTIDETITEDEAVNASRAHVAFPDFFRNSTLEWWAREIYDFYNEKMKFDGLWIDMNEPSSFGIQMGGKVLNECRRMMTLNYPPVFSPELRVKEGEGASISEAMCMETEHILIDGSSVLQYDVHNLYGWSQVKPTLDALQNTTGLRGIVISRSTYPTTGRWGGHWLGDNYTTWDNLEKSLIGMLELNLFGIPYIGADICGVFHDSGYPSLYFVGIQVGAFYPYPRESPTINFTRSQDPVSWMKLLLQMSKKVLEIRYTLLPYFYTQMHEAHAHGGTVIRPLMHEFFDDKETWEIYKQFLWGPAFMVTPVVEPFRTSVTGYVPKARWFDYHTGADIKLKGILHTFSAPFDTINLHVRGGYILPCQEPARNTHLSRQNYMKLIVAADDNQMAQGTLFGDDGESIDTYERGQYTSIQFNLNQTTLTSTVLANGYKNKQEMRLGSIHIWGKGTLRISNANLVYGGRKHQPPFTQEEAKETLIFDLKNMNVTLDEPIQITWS
T1 sequence (P23739 2-1013 partner limits assumed): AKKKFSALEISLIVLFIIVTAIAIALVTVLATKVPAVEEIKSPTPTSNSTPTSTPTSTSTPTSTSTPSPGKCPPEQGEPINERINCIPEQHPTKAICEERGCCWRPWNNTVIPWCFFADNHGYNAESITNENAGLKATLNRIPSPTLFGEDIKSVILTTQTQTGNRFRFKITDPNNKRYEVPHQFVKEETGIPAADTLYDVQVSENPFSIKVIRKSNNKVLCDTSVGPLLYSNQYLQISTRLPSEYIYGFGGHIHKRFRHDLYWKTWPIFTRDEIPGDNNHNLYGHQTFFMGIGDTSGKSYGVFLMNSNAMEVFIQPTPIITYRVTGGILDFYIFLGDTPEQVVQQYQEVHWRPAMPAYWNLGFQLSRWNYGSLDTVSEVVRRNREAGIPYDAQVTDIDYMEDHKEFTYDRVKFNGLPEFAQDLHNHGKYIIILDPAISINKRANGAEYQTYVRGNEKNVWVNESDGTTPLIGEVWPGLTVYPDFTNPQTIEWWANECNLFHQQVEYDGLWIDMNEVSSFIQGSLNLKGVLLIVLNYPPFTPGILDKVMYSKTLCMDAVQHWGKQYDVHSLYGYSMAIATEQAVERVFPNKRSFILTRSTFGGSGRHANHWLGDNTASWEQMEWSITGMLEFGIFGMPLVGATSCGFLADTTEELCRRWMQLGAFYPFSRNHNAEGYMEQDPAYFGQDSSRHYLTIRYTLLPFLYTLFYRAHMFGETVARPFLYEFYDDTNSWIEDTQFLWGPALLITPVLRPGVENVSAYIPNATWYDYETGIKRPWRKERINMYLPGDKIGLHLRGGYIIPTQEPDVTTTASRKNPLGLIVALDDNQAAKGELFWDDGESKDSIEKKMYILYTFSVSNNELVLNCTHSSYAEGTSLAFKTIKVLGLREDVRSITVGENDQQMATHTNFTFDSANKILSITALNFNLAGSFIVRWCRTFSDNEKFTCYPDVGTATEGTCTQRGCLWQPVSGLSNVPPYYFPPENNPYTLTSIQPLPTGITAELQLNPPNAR
Experimental: (§1) The assessment of α-glucosidase inhibitory activity was performed according to our previous report. Briefly, 100 mg of rat intestinal acetone powder was homogenized in 3 mL of 0.9% NaCl solution. After centrifugation (12,000 g × 30 min), 10 μL of the supernatant (maltase = 0.68 units/mg protein, sucrase = 0.10 units/mg protein) was incubated with 70 μL of substrate solution (37 mM maltose, 54 mM sucrose), and 20 μL of sample at various concentrations in 0.1 M phosphate buffer pH 6.9 at 37 °C for 30 min (maltase assay) and 60 min (sucrase assay). The mixtures were suspended in boiling water for 10 min to stop the reaction. The concentrations of glucose released from the reaction mixtures were determined by glucose oxidase method.
(§2) The reaction was performed according to the above assay (α-glucosidase and pancreatic α-amylase). Results were expressed as a percentage inhibition of the corresponding control values.

[2] = biological target: T2, porcine pancreatic α-amylase (Sus scrofa, UniProt P00690); assay: Pancreatic α-amylase inhibition assay (starch, DNS reagent); format: biochemical; settings: for Percentage pancreatic α-amylase inhibition in combination with acarbose, compared with acarbose alone: 1.0 μM compound + 3.12 μM acarbose, Figure 4; for IC50: 1 g/L starch, amylase 3 U/mL, pH 6.9, 10 min, means ± S.E.M., n = 3
T2 construct: purchased Sigma Chemical Co. Ltd. (St. Louis, MO)
T2 sequence (P00690 16-511): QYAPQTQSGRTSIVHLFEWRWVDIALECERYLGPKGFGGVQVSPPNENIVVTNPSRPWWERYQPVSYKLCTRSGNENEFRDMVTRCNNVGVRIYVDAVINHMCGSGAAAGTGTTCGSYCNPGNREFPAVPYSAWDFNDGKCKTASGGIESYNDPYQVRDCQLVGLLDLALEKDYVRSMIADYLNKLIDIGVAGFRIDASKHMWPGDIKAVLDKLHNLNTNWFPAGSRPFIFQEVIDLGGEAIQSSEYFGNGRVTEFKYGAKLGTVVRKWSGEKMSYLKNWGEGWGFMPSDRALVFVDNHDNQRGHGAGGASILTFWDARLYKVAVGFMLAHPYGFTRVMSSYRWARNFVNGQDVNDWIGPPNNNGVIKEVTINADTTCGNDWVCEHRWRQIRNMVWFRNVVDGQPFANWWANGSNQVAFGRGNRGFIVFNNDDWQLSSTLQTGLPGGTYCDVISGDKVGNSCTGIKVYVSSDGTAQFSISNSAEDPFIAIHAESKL
Experimental: The pancreatic α-amylase inhibition assay was performed according to our previous reports. Porcine pancreatic α-amylase was dissolved in 0.1 M phosphate buffer saline, pH 6.9. The various concentrations of test compounds were added to solution containing in 1 g/L starch and phosphate buffer. The reaction was initiated by adding amylase (3 U/mL) to the incubation medium to a final volume of 500 μL. After 10 min, the reaction was stopped by adding 0.5 mL dinitrosalicylic (DNS) reagent (1% 3,5-dinitrosalicylic acid, 0.2% phenol, 0.05% Na2SO3, and 1% NaOH in aqueous solution) to the reaction mixture. The mixtures were heated at 100 °C for 10 min and 500 μL of 40% potassium sodium tartarate solution was added to the mixtures to stabilize the color. After cooling to room temperature in a cold water bath, absorbance was recorded at 540 nm using a spectrophotometer.
as §2

intestinal maltase = assay: Intestinal α-glucosidase (maltase) inhibition assay, rat intestinal acetone powder; format: biochemical; settings: for IC50: 37 mM maltose, pH 6.9, 37 °C, 30 min, means ± S.E.M., n = 3
Experimental: as §1, with “method. Acarbose was used as a positive control for this assay.” for “method.”
as §2

intestinal α-glucosidase = settings: combination of acarbose and compound; ref [8]; cited from earlier work
pancreatic β-cell line = test system: pancreatic β-cell line; design: method as in PMID 15631504; settings: ref [16]; cited from earlier work
intestinal sucrase [3] = biological target: T1, intestinal sucrase; settings: cited from earlier work
[4] = cited from earlier work
3T3-L1 adipocytes = test system: 3T3-L1 adipocytes; design: method as in PMID 18179781; settings: H2O2- or TNF-α-induced, via inhibition of JNK signal pathway; ref [15]; cited from earlier work

Compound | Intestinal sucrase inhibitory activity (intestinal sucrase [1]) | Percentage intestinal sucrase inhibition in combination with acarbose, compared with acarbose alone (intestinal sucrase [1]) | IC50 (intestinal sucrase [1]) [µM] | Pancreatic α-amylase inhibitory activity [2] | Percentage pancreatic α-amylase inhibition in combination with acarbose, compared with acarbose alone [2] | IC50 [2] [µM] | IC50 (intestinal maltase) [µM] | Insulin secretion (pancreatic β-cell line) | other results
C[C@@H]1O[C@@H](OC[C@H]2O[C@@H](Oc3cc4c(O)cc(O)cc4[o+]c3-c3ccc(O)c(O)c3)[C@H](O)[C@@H](O)[C@@H]2O)[C@H](O)[C@H](O)[C@H]1O [cyanidin-3-rutinoside] |  |  |  |  |  |  |  |  | Manner of inhibition of yeast α-glucosidase (yeast α-glucosidase): non-competitive
Oc1cc(O)c2cc(O)c(-c3ccc(O)c(O)c3)[o+]c2c1 [Cyanidin, Cyanidin chloride] | weak | No change | 1420 ± 250 | weak | significantly increased | 380 ± 10 | > 3000 |  | Percentage intestinal maltase inhibition in combination with acarbose, compared with acarbose alone (intestinal maltase; 1 μM compound + 0.05 μM acarbose, Figure 2): No change
C[C@H]1O[C@H](O[C@H]2[C@H](O)[C@@H](O)[C@@H](O[C@H]3[C@H](O)[C@@H](O)C(O)O[C@@H]3CO)O[C@@H]2CO)[C@H](O)[C@@H](O)[C@@H]1N[C@H]1C=C(CO)[C@@H](O)[C@H](O)[C@H]1O (stereo partly drawn) [Acarbose] |  |  |  |  |  |  | 3 ± 1 |  | Reduction in the incidence of diabetes ([4]; acarbose treatment, ref [18]): 25%; Reduction of the postprandial peak of glycemia ([4]; acarbose treatment, ref [19]): 20%; Most common adverse effect ([4]; dose-dependent, flatulence, meteorism and abdominal distention, ref [19]): gastrointestinal disturbance; Duration of the effect on postprandial glycemia ([4]; ref [19]): ≤ 5 h; Dose exceeding the saturated binding of α-glucosidase, no increase in inhibitory effect ([4]; ref [20],[21]): > 300 mg/day; Lowest dose with clinical effects ([4]; ref [20],[21]): 150 mg/day

More lines, main results first:

Intestinal sucrase inhibitory activity (intestinal sucrase [1]) | Percentage intestinal sucrase inhibition in combination with acarbose, compared with acarbose alone (intestinal sucrase [1]) | IC50 (intestinal sucrase [1]) [µM] | Pancreatic α-amylase inhibitory activity [2] | Percentage pancreatic α-amylase inhibition in combination with acarbose, compared with acarbose alone [2] | IC50 [2] [µM] | IC50 (intestinal maltase) [µM] | Compound | Insulin secretion (pancreatic β-cell line) | other results
 | synergistic effects |  | no inhibitory activity | did not show significant changes | > 1000 | > 3000 | OC[C@H]1O[C@@H](Oc2cc3c(O)cc(O)cc3[o+]c2-c2ccc(O)c(O)c2)[C@H](O)[C@@H](O)[C@H]1O [Cyanidin-3-galactoside, cyanidin-3-galactoside chloride] | directly stimulate insulin secretion | Effect of combination with acarbose on intestinal α-glucosidase inhibition (intestinal α-glucosidase): synergistic effect; Type of inhibition against intestinal sucrase (intestinal sucrase [3]; kinetic model, ref [8]): mixed type; IC50 (intestinal sucrase [3]; previously reported value, ref Adisakwattana et al. [8]): 500 ± 50 µM
inactive | synergistic effects | > 2000 | no inhibitory activity | did not show significant changes | > 1000 | > 3000 | OC[C@H]1O[C@@H](Oc2cc3c(O[C@@H]4O[C@H](CO)[C@@H](O)[C@H](O)[C@H]4O)cc(O)cc3[o+]c2-c2ccc(O)c(O)c2)[C@H](O)[C@@H](O)[C@@H]1O [Cyanidin-3,5-diglucoside, cyanidin-3,5-diglucoside] |  | 
 | synergistic effects | 970 ± 50 |  | significantly increased | 300 ± 10 | > 3000 | OC[C@H]1O[C@@H](Oc2cc3c(O)cc(O)cc3[o+]c2-c2ccc(O)c(O)c2)[C@H](O)[C@@H](O)[C@@H]1O [Cyanidin-3-glucoside, cyanidin-3-glucoside chloride] | directly stimulate insulin secretion | Action against induced insulin resistance (3T3-L1 adipocytes): protective action
